Laboratory results reported in PubChem BioAssay (NCI).
Several values for one entry are separate records, joined by “and”; a condition that tells them apart may be missing. Identical values can stand only once.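 Step 1: Grow cells in 96-well plates. Step 2: Expose to compound for 48 hours at 5 concentrations. Step 3: Interpolate endpoints linearly; if unreached, use highest concentration. Abbreviation: GI50, concentration required for 50% inhibition of growth. TGI marks complete inhibition of growth.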 Where a SMILES comes first, the peptide text is derived from it. [ ]: non-standard residue; d: D form. The star is where a group is joined. ξ: configuration not given here. NMeN = CN[C@@H](CC(N)=O)C(=O)O; NMeV = CN[C@H](C(=O)O)C(C)C; ξNMeV = CNC(C(=O)O)C(C)C; Boc = CC(C)(C)OC(=O)*; ξNMeA = CNC(C)C(=O)O

Key:
Test in all cases: NCI tumour cell line growth inhibition, 48 h
NCI-H522 lung = system: NCI-H522 lung
SF-268 CNS = system: SF-268 CNS
ACHN renal = system: ACHN renal
HCT-15 colon = system: HCT-15 colon
LOX IMVI melanoma = system: LOX IMVI melanoma
UACC-257 melanoma = system: UACC-257 melanoma
786-0 renal = system: 786-0 renal
K-562 leukemia = system: K-562 leukemia
SK-MEL-2 melanoma = system: SK-MEL-2 melanoma
A549 NSCLC = system: A549 NSCLC

Row | SMILES | TGI (NCI-H522 lung) | TGI (SF-268 CNS) | GI50 (ACHN renal) | TGI (ACHN renal) | TGI (HCT-15 colon) | GI50 (LOX IMVI melanoma) | TGI (LOX IMVI melanoma) | GI50 (UACC-257 melanoma) | TGI (UACC-257 melanoma) | GI50 (786-0 renal) | TGI (786-0 renal) | GI50 (K-562 leukemia) | TGI (K-562 leukemia) | GI50 (SK-MEL-2 melanoma) | TGI (SK-MEL-2 melanoma) | GI50 (A549 NSCLC) | TGI (A549 NSCLC) | GI50 (SF-268 CNS) | GI50 (HCT-15 colon) | GI50 (NCI-H522 lung)
1 | COC(=O)C(C)N(C)C(=O)[C@H](CC(N)=O)N(C)C(=O)[C@@H]1CCCN1C(=O)[C@H](C(C)C)N(C)C(=O)C(C(C)C)N(C)C(=O)[C@@H](NC(=O)OC(C)(C)C)C(C)C (some centres undefined) (Boc-V[ξNMeV][NMeV]P[NMeN][ξNMeA]-OMe) | > 50 µM | > 100 µM | > 100 µM | > 100 µM | > 100 µM | 13.5 µM | 50 µM and 27 µM | > 100 µM | > 100 µM | 57 µM | > 100 µM | > 100 µM | 50 µM and > 100 µM | > 100 µM | > 100 µM | > 100 µM | 50 µM and > 100 µM | – | – | –
2 | Cc1occc1C(=S)Nc1ccc(Cl)c(/C=N/OC(C)C)c1 | 28.5 µM | > 62.2 µM | – | 51 µM | 42.8 µM | – | 31.1 µM | – | 47.6 µM | – | 43.8 µM | – | > 100 µM | – | 43.8 µM | – | 54.2 µM | – | – | –
3 | Cc1ccc(NC(=O)CC(=O)n2nc(-c3ccccc3)c(N=Nc3ccccc3Cl)c2-c2ccccc2)cc1 | > 100 µM | > 100 µM | – | > 100 µM | > 100 µM | – | > 100 µM | > 100 µM | > 100 µM | – | > 100 µM | – | > 100 µM | > 100 µM | > 100 µM | – | > 100 µM | > 100 µM | > 100 µM | –
4 | O=C([CH-]C(=O)c1ccccc1)c1ccccc1.O=C([CH-]C(=O)c1ccccc1)c1ccccc1.O=C([CH-]C(=O)c1ccccc1)c1ccccc1.[OH3+].[Y+3] | 11.1 µM | 31 µM | 6.34 µM | 21.9 µM | 22.8 µM | 3.74 µM | 17 µM | 12 µM | 33.2 µM | 4.72 µM | 21.8 µM | 3.6 µM | 17.8 µM | 4.24 µM | 17.9 µM | 13.2 µM | 38.9 µM | 4.8 µM | 4.96 µM | 2.58 µM
5 | COc1ccc(C2=C(c3ccc(OC)c(OC)c3)C(=O)OC2)cc1 | – | > 91.7 µM | < 0.0135 µM | > 100 µM | 28.6 µM | < 0.01 µM | > 39.1 µM | > 47.4 µM | > 100 µM | < 0.01 µM | – | < 0.01 µM | – | – | > 100 µM | 0.133 µM | > 100 µM | 0.106 µM | < 0.01 µM | < 0.0406 µM
6 | CC1=C2C[C@H]3[C@@H](CC=C4C[C@@H](O)CC[C@@]43C)[C@@H]2CC[C@]12O[C@@H]1C[C@H](C)CN[C@H]1[C@H]2C | 44.7 µM and 39.7 µM | 50 µM and 50.9 µM | 10.4 µM and 18.7 µM | 22.3 µM and 41.4 µM | 49.4 µM and > 100 µM | 10.5 µM and 16.9 µM | 31.8 µM and 33.5 µM | 20.3 µM and 17.3 µM | 50 µM and 33.1 µM | 15.5 µM and 17.3 µM | 50 µM and 33.4 µM | 9.4 µM and 15.9 µM | 34.7 µM and 40.2 µM | 12.3 µM and 23.4 µM | 38.4 µM and 51.6 µM | 16.8 µM and 17.5 µM | 50 µM and 39.4 µM | 21.2 µM and 23.7 µM | 12.6 µM and 22.3 µM | 13.6 µM and 21.2 µM
7 | c1ccc2c(c1)-c1ccccc1C2N1CC2CCC(CC2)C1 | 28.5 µM | 37.8 µM | – | 53.4 µM | 40 µM | – | 40.5 µM | – | 47.1 µM | – | > 100 µM | – | 36.6 µM | – | 30.7 µM | – | > 100 µM | – | – | –
8 | CN(C)C1CCN(C(=O)c2ccc(NC(=O)Nc3ccc(-c4nc(N5CCOCC5)nc(N5CCOCC5)n4)cc3)cc2)CC1 | 0.0758 µM and 0.207 µM and 0.371 µM | – | 1.42 µM and 1.06 µM | > 100 µM | > 100 µM | < 0.01 µM and 0.0111 µM and 0.0296 µM | – | 0.0289 µM and 0.0633 µM and 0.0266 µM | 0.151 µM and 0.386 µM and 0.243 µM | 0.237 µM and 0.136 µM and 0.571 µM | 2.82 µM and 2.5 µM and 8.53 µM | 0.13 µM and 0.0357 µM and 0.132 µM | – | 0.0236 µM and 0.0243 µM and 0.0196 µM | 0.0744 µM and 0.113 µM and 0.09 µM | 0.0132 µM and 0.0183 µM and 0.0417 µM | 0.232 µM and 0.36 µM and 1.02 µM | 0.0229 µM and 0.0207 µM and 0.0434 µM | 3.08 µM and 2.19 µM | 0.0102 µM and 0.0103 µM and 0.0246 µM
9 | CC[Si](CC)(CC)OC[C@]1([C@@H]2COC(C)(C)O2)CC=CC(=O)O1 | > 100 µM | > 100 µM | 42.8 µM | > 100 µM | > 100 µM | 25 µM | 81 µM | 32.2 µM | > 100 µM | 38.1 µM | > 100 µM | 34.6 µM | > 100 µM | 41.1 µM | > 100 µM | 30.4 µM | > 100 µM | 41.5 µM | 35.7 µM | 35.4 µM
10 | CC(=O)/C(=C\C1=CCCO1)C(=O)Nc1ccccc1C | > 100 µM | > 100 µM | – | > 100 µM | > 100 µM | – | > 100 µM | – | > 100 µM | – | > 100 µM | – | > 100 µM | – | > 100 µM | – | > 100 µM | – | – | –
11 | O=C(Nc1ccc(F)cc1F)c1cc(Br)ccc1O | 39.9 µM | 38.7 µM | 2.5 µM | 8.4 µM | 17.3 µM | 2.91 µM | 21.2 µM | 1.86 µM | 7.24 µM | 3.13 µM | 10.2 µM | 2.42 µM | > 100 µM | 2.3 µM | 6.74 µM | 3.26 µM | > 100 µM | 2.78 µM | 3.04 µM | 2.83 µM
12 | O=S(=O)(c1ccc(N=C2NN=C(c3c[nH]c4ccccc34)CS2)cc1)N1CCOCC1 | > 100 µM | > 100 µM | 88.6 µM | > 100 µM | > 100 µM | 11.2 µM | > 100 µM | 9.54 µM | > 100 µM | 2.55 µM | 42.3 µM | 2.65 µM | > 100 µM | 6.22 µM | > 100 µM | 8.68 µM | > 100 µM | 73.7 µM | 8.06 µM | > 100 µM
13 | COc1ccc(-c2nc3ncccn3c2/C=C/C(=O)c2cc(OC)c(OC)c(OC)c2)cc1 | 3.89 µM | 9.62 µM | 1.57 µM | 3.17 µM | 3.94 µM | 1.46 µM | 3 µM | 1.88 µM | 4.81 µM | 1.84 µM | 5.51 µM | 2.63 µM | > 100 µM | 1.87 µM | 4.69 µM | 2.71 µM | > 100 µM | 2.36 µM | 1.38 µM | 1.66 µM
